From article PMC8297402, “Trifluoromethyl-substituted 3,5-bis(arylidene)-4-piperidones as potential anti-hepatoma and anti-inflammation agents by inhibiting NF-кB activation” (Journal of Enzyme Inhibition and Medicinal Chemistry, 2021)
Read-outs that look alike come from different tables or passages of the source.

How the values were obtained:
[1] = system: HepG2; test: Modified MTT cytotoxicity assay, HepG2; format: cell-based, Human; settings: for IC50: MTT, 24 h incubation, three replicates, read-out: Cytotoxicity IC50 HepG2; for SI (selectivity index) HepG2: quotient of IC50 for normal (LO2) and malignant (HepG2) cells
Description: (§1) The HepG2, SMMC-7721, and LO2 cell lines were maintained at 37 °C, 5% humidified CO2, and 95% atmosphere. Dulbecco's Modified Eagle (DMEM) medium containing 10% foetal bovine serum (FBS) was used for culturing the HepG2 cell line; meanwhile, Roswell Park Memorial Institute (RPMI) 1640 medium containing 10% FBS was used for culturing other cell lines (SMMC-7721, LO2). The HepG2, SMMC-7721 and LO2 cells were seeded in a 96-well plate in 200 μL of medium per well at a density of approximately 8 × 10^3 cells/well and cultured for 24 h, followed by incubation in an incubator of indicated compounds with successive concentrations (10, 5, 2.5, 1.25, 0.625, 0.3125 μg/mL) for 24 h. In the control group, cells were only cultured with culture media. After the media were removed, 20 μL of MTT (5 mg/mL) was added, then cells were incubated for 4 h at 37 °C. […] GraphPad Prism 5 software was used to calculate their IC50 values. Every IC50 value was the average of three replicates. Doxorubicin (DOX) and curcumin were used as positive controls.

[2] = system: SMMC-7721; test: Modified MTT cytotoxicity assay, SMMC-7721; format: cell-based, Human; settings: for IC50: MTT, 24 h incubation, three replicates; for SI (selectivity index) SMMC-7721: quotient of IC50 for normal (LO2) and malignant (SMMC-7721) cells
Description: as §1

[3] = Modified MTT cytotoxicity assay, normal heptical cell line LO2; format: cell-based, human; settings: human, LO2 cells (normal hepatic cell line), 24 h incubation
Description: as §1

[4] = system: RAW264.7 cell; test: MTT toxicity pre-experiment on RAW264.7 macrophagocyte; format: cell-based, mouse; settings: for viability at 5 µM: Mus musculus, RAW264.7, BAPs 5 μM, read-out: Survival rate RAW264.7 cell
Description: Lipopolysaccharide (LPS) is a key constituent of Gram-negative bacterial endotoxin, which is used to induce an inflammatory response in corresponding inflammatory cells. TNF-α and IL-6 are two kinds of representative pro-inflammatory factors, which produced by LPS-stimulated RAW264.7 macrophage. In our pre-experiments, the toxicity against RAW264.7 macrophagocyte for all title compounds was tested by the MTT assay, and the results were listed in Table 2. The survival rates were above 80% for all BAPs (4-30) at the concentration of 5.0 μM.

[5] = system: TNF-α; test: ELISA of TNF-α release in LPS-stimulated RAW264.7 cells; format: cell-based, mouse; settings: RAW264.7, ELISA; for inhibition at 5 µM: RAW264.7, BAPs (5 μM) + LPS (1 μg/mL)
Description: (§2) We tested by inhibiting the secretion of TNF-α and IL-6 to better evaluated the anti-inflammatory effects of BAPs. […] Under the stimulation of LPS (1.0 μg/mL) with RAW264.7 cells, the release of TNF-α and IL-6 was detected. Besides, after treated with BAPs (5.0 μM) and LPS (1.0 μg/mL), the release of TNF-α and IL-6 was measured with an ELISA kit (eBioScience, San Diego, California), respectively. In general terms, pyrrolidine dithiocarbamate (PDTC, 30 μM) or BAP (5.0 μM) was used to pretreat cells for 2 h, respectively. Then, LPS (1.0 μg/mL) was added and cells were incubated for another 22 h. Finally, the culture media were centrifuged at 1000 rpm for 10 min, and the expression levels of TNF-α and IL-6 were determined by ELISA.

[6] = system: IL-6; test: ELISA of IL-6 release in LPS-stimulated RAW264.7 cells; format: cell-based, mouse; settings: RAW264.7, ELISA; for inhibition at 5 µM: RAW264.7, BAPs (5 μM) + LPS (1 μg/mL)
Description: as §2

[7] = system: A549; test: Modified MTT cytotoxicity assay, A549; settings: for SI (selectivity index) A549: quotient of IC50 for normal (HHL-5) and malignant (A549) cells
[8] = system: A2780; test: Modified MTT cytotoxicity assay, A2780; settings: for SI (selectivity index) A2780: quotient of IC50 for normal (HHL-5) and malignant (A2780) cells
Description: To further verify the anti-tumour activity, one human non-small cell lung cancer cell line (A549), one human ovarian cancer cell line (A2780), and one human normal heptical cell line (HHL-5) were screened by BAPs (4–30) using a modified MTT assay (Supporting Information). DOX and curcumin were selected as positive controls.
The optical density (OD) value of each well was measured on a
multi-well plate reader (TECAN, Mӓnnedorf, Switzerland ) at 570 nm.
Every IC 50 value was the average of three replicates.
Doxorubicin (DOX) and Curcumin were used as positive controls.

[9] = Modified MTT cytotoxicity assay, normal heptical cell line HHL-5; settings: human, HHL-5 cells (normal hepatic cell line)
[10] = system: LO2; test: Modified MTT cytotoxicity assay, normal heptical cell line LO2; format: cell-based, human; settings: 24 h incubation
Description: as §1

[11] = Mus musculus, read-out: Inhibition rate TNF-α
[12] = Mus musculus, read-out: Inhibition rate IL-6
[13] = Homo sapiens, A549, read-out: Cytotoxicity IC50 A549, MTT, non-small cell lung cancer cell line
[14] = Homo sapiens, A2780, read-out: Cytotoxicity IC50 A2780, MTT, ovarian cancer cell line

N#Cc1ccc(S(=O)(=O)N2C/C(=C\c3ccccc3C(F)(F)F)C(=O)/C(=C/c3ccccc3C(F)(F)F)C2)cc1 [BAP 11]
IC50 ([1]; Homo sapiens, HepG2, 24 h): 9 ± 0.2 µM
SI (selectivity index) HepG2 [1]: 1.4
IC50 ([2]; Homo sapiens, SMMC-7721, 24 h): 12 ± 0.2 µM
SI (selectivity index) SMMC-7721 [2]: 1.1
IC50 at 24 h [3]: 13 ± 0.1 µM
viability at 5 µM [4]: 84.2 ± 2%
inhibition at 5 µM [5, 11]: 58.9 ± 3.2%
inhibition at 5 µM [6, 12]: 59.1 ± 5.2%
IC50 [7, 13]: 64.2 ± 10.2 µM
SI (selectivity index) A549 [7]: 0.2
IC50 [8, 14]: 32.3 ± 7.69 µM
SI (selectivity index) A2780 [8]: 0.5
IC50 [9]: 15.5 ± 0.3 µM

COc1cc(/C=C/C(=O)CC(=O)/C=C/c2ccc(O)c(OC)c2)ccc1O [Curcumin, reference compound]
IC50 ([1]; Homo sapiens, HepG2, 24 h): ~15.3 µM
SI (selectivity index) HepG2 [1]: 1.9
IC50 ([2]; Homo sapiens, SMMC-7721, 24 h): ~19.5 µM
SI (selectivity index) SMMC-7721 [2]: 1.5
IC50 at 24 h [3]: 29.1 ± 2.1 µM
IC50 [7, 13]: 32 ± 3.55 µM
SI (selectivity index) A549 [7]: 0.8
IC50 [8, 14]: 44 ± 9.82 µM
SI (selectivity index) A2780 [8]: 0.5
IC50 [9]: 24.2 ± 0.5 µM

O=C1/C(=C/c2ccccc2C(F)(F)F)CN(S(=O)(=O)c2ccc(F)cc2)C/C1=C\c1ccccc1C(F)(F)F [BAP 8]
IC50 ([1]; Homo sapiens, HepG2, 24 h): 4 ± 0.2 µM
IC50 ([2]; Homo sapiens, SMMC-7721, 24 h): 8.3 ± 0.2 µM
IC50 at 24 h [3]: 13.8 ± 1.1 µM
viability at 5 µM [4]: 82.1 ± 1.9%
inhibition at 5 µM [5, 11]: 46.8 ± 4.2%
inhibition at 5 µM [6, 12]: 51.3 ± 3.3%
IC50 [7, 13]: 13.5 ± 1.39 µM
IC50 [8, 14]: 1.44 ± 0.54 µM
IC50 [9]: 11.8 ± 0.2 µM

O=C1/C(=C/c2ccccc2C(F)(F)F)CN(S(=O)(=O)c2ccc(Cl)cc2)C/C1=C\c1ccccc1C(F)(F)F [BAP 9]
IC50 ([1]; Homo sapiens, HepG2, 24 h): 11 ± 0.3 µM
IC50 ([2]; Homo sapiens, SMMC-7721, 24 h): 10.4 ± 0.3 µM
IC50 at 24 h [3]: 30.9 ± 0.3 µM
viability at 5 µM [4]: 92.8 ± 4.2%
inhibition at 5 µM [5, 11]: 47.1 ± 6.4%
inhibition at 5 µM [6, 12]: 38.2 ± 2.5%
IC50 [7, 13]: 1.86 ± 0.61 µM
IC50 [8, 14]: 0.62 ± 0.07 µM
IC50 [9]: 9.3 ± 0.1 µM

O=C1/C(=C/c2ccc(C(F)(F)F)cc2)CN(S(=O)(=O)c2ccc(F)cc2)C/C1=C\c1ccc(C(F)(F)F)cc1 [BAP 26]
IC50 [1]: 3.1 ± 0.2 µM
SI (selectivity index) HepG2 [1]: 5.1
IC50 [2]: 3.1 ± 0.1 µM
SI (selectivity index) SMMC-7721 [2]: 5.1
IC50 [10]: 15.7 ± 0.2 µM
Survival rate RAW264.7 cell ([4]; BAPs 5 μM): 87.6 ± 1.7%
Inhibition rate TNF-α ([5]; BAPs (5 μM) + LPS (1 μg/mL)): 66.3 ± 5.3%
Inhibition rate IL-6 ([6]; BAPs (5 μM) + LPS (1 μg/mL)): 62.8 ± 3.0%
SI (selectivity index) A549 [7]: 70.6
IC50 ([7]; read-out: Cytotoxicity IC50 A549, MTT, non-small cell lung cancer cell line): 0.16 ± 0.05 µM
SI (selectivity index) A2780 [8]: 38.0
IC50 ([8]; read-out: Cytotoxicity IC50 A2780, MTT, ovarian cancer cell line): 0.297 ± 0.05 µM

O=C1/C(=C/c2cccc(C(F)(F)F)c2)CN(S(=O)(=O)c2ccc(Cl)cc2)C/C1=C\c1cccc(C(F)(F)F)c1 [BAP 18]
IC50 ([1]; Homo sapiens, HepG2, 24 h): 5.2 ± 0.1 µM
IC50 ([2]; Homo sapiens, SMMC-7721, 24 h): 13.9 ± 0.1 µM
IC50 at 24 h [3]: 14.1 ± 0.1 µM
viability at 5 µM [4]: 85.7 ± 4.2%
inhibition at 5 µM [5, 11]: 50.6 ± 3.2%
inhibition at 5 µM [6, 12]: 46.2 ± 2.1%
IC50 [7, 13]: 0.15 ± 0.02 µM
IC50 [8, 14]: 0.19 ± 0.02 µM
IC50 [9]: 2.2 ± 0.1 µM

S=C(S)N1CCCC1 [PDTC, pyrrolidine dithiocarbamate, reference compound]
inhibition at 30 µM ([5]; Mus musculus, RAW264.7, PDTC 30 μM + LPS (1 μg/mL), read-out: Inhibition rate TNF-α): ~68.2%
inhibition at 30 µM ([6]; Mus musculus, RAW264.7, PDTC 30 μM + LPS (1 μg/mL), read-out: Inhibition rate IL-6): ~59.1%
